From ChEMBL document CHEMBL3792327, “Discovery and modelling studies of natural ingredients from Gaultheria yunnanensis (FRANCH.) against phosphodiesterase-4” (Eur J Med Chem, 2016)
Blank lines part the entries; values can stand above or below the compound they belong to.

Assays:
[1] = species on record: Homo sapiens; assay: Selectivity index, ratio of IC50 for PDE9A2 catalytic domain (181 to 506 residues) (unknown origin) to IC50 for PDE4D2 catalytic domain (86 to 413 residues) (unknown origin)
[2] = molecular target: cGMP-specific 3',5'-cyclic phosphodiesterase (Homo sapiens, UniProt O76074); assay: Inhibition of PDE5A1 catalytic domain (535 to 860 residues) (unknown origin) using [3H]-cGMP as substrate after 15 mins by liquid scintillation counting method
[3] = species on record: Homo sapiens; assay: Selectivity index, ratio of IC50 for PDE5A1 catalytic domain (535 to 860 residues) (unknown origin) to IC50 for PDE4D2 catalytic domain (86 to 413 residues) (unknown origin)
[4] = molecular target: cGMP-dependent 3',5'-cyclic phosphodiesterase (Homo sapiens, UniProt O00408); assay: Inhibition of PDE2A3 catalytic domain (222 to 904 residues) (unknown origin) using [3H]-cGMP/[3H]-cAMP as substrate after 15 mins by liquid scintillation counting method
[5] = species on record: Homo sapiens; assay: Selectivity index, ratio of IC50 for PDE2A3 catalytic domain (222 to 904 residues) (unknown origin) to IC50 for PDE4D2 catalytic domain (86 to 413 residues) (unknown origin)
[6] = molecular target: cAMP and cAMP-inhibited cGMP 3',5'-cyclic phosphodiesterase 10A (Homo sapiens, UniProt Q9Y233); assay: Inhibition of PDE10A2 catalytic domain (448 to 789 residues) (unknown origin) using [3H]-cGMP/[3H]-cAMP as substrate after 15 mins by liquid scintillation counting method
[7] = species on record: Homo sapiens; assay: Selectivity index, ratio of IC50 for PDE1B2 catalytic domain (10 to 487 residues) (unknown origin) to IC50 for PDE4D2 catalytic domain (86 to 413 residues) (unknown origin)
[8] = species on record: Homo sapiens; assay: Selectivity index, ratio of IC50 for PDE10A2 catalytic domain (448 to 789 residues) (unknown origin) to IC50 for PDE4D2 catalytic domain (86 to 413 residues) (unknown origin)
[9] = molecular target: Dual specificity calcium/calmodulin-dependent 3',5'-cyclic nucleotide phosphodiesterase 1B (Homo sapiens, UniProt Q01064); assay: Inhibition of PDE1B2 catalytic domain (10 to 487 residues) (unknown origin) using [3H]-cGMP/[3H]-cAMP as substrate after 15 mins by liquid scintillation counting method
[10] = molecular target: High affinity cGMP-specific 3',5'-cyclic phosphodiesterase 9A (Homo sapiens, UniProt O76083); assay: Inhibition of PDE9A2 catalytic domain (181 to 506 residues) (unknown origin) using [3H]-cGMP/[3H]-cAMP as substrate after 15 mins by liquid scintillation counting method
[11] = molecular target: 3',5'-cyclic-AMP phosphodiesterase 4D (Homo sapiens, UniProt Q08499); assay: Inhibition of PDE4D2 catalytic domain (86 to 413 residues) (unknown origin) using [3H]-cAMP as substrate after 15 mins by liquid scintillation counting method
Sequence of 3',5'-cyclic-AMP phosphodiesterase 4D (Q08499 whole entry, the tested form may be a part): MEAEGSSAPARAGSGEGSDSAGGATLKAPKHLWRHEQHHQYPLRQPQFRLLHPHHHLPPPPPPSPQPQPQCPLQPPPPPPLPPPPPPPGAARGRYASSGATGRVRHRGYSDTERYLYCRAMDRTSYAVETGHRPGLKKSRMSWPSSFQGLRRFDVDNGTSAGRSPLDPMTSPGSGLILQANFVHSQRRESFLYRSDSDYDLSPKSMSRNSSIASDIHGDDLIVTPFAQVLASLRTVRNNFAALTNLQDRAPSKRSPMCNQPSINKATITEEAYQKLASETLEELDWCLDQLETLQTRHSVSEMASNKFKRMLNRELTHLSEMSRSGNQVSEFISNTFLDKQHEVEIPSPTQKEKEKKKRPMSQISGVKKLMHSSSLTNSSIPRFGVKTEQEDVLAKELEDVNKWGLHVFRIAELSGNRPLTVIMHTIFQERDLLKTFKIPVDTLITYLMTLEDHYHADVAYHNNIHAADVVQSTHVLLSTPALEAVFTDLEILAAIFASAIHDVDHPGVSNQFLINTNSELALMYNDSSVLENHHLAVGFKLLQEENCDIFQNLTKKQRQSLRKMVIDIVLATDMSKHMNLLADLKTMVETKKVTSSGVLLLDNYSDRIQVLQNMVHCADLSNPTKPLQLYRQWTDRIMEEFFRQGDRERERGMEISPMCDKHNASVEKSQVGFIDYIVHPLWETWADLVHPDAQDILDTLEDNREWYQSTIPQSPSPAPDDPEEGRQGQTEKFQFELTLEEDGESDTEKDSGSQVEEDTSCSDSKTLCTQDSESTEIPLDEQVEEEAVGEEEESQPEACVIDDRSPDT

Sequence of Dual specificity calcium/calmodulin-dependent 3',5'-cyclic nucleotide phosphodiesterase 1B (Q01064 whole entry, the tested form may be a part): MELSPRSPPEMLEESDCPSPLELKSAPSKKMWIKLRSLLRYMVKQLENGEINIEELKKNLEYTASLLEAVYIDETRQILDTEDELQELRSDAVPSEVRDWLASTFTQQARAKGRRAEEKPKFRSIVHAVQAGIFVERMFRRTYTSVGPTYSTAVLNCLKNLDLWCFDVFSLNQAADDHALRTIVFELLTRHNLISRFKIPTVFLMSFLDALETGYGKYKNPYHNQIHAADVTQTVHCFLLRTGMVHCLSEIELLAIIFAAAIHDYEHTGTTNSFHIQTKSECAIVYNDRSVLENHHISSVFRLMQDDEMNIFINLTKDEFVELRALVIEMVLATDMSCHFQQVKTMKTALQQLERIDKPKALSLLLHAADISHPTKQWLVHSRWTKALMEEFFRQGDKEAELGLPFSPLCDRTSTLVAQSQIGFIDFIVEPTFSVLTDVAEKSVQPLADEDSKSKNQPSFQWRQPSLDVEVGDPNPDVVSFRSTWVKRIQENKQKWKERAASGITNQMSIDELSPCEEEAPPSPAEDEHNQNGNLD
Sequence of cAMP and cAMP-inhibited cGMP 3',5'-cyclic phosphodiesterase 10A (Q9Y233 whole entry, the tested form may be a part): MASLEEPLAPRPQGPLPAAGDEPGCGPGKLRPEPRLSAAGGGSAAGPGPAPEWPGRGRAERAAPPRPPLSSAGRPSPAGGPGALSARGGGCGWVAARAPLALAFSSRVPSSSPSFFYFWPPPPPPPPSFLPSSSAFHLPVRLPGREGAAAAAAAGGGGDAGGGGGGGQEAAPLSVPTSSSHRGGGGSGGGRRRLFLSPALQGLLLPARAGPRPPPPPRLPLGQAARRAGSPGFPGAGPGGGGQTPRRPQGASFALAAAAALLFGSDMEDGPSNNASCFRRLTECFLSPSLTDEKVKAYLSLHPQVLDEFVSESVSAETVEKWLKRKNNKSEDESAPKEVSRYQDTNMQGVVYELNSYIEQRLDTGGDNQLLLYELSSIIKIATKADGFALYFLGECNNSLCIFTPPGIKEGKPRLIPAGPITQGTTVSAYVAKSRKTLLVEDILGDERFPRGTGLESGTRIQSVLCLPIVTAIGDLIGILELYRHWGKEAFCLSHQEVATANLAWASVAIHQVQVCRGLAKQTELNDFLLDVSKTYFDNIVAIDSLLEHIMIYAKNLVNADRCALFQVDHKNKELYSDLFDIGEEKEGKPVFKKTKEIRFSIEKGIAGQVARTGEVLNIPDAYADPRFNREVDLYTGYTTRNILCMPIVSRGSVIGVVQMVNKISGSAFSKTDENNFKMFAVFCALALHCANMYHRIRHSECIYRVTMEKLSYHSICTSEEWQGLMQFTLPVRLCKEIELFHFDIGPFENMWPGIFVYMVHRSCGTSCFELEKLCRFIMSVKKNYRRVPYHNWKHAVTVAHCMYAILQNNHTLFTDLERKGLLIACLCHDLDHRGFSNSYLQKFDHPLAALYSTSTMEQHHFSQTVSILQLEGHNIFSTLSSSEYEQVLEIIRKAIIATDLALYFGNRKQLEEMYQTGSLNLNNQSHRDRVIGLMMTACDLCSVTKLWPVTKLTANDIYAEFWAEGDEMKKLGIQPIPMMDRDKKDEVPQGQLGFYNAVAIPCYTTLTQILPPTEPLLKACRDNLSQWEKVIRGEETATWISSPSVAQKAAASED
Sequence of High affinity cGMP-specific 3',5'-cyclic phosphodiesterase 9A (O76083 whole entry, the tested form may be a part): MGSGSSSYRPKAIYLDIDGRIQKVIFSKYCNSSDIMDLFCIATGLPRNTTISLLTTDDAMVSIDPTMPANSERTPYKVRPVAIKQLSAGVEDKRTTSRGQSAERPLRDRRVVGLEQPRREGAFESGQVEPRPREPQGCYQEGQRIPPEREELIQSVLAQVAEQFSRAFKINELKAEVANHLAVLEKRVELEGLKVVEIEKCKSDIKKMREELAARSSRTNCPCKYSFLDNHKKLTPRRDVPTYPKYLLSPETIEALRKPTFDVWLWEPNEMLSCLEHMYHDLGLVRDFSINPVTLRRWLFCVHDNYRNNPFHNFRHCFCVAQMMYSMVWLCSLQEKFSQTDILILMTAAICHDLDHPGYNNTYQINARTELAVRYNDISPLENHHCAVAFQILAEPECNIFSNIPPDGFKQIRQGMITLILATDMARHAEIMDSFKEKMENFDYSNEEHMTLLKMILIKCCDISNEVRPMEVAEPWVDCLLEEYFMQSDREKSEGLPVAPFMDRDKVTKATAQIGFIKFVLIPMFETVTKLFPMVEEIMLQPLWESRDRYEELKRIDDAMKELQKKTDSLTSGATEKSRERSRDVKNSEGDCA
Sequence of cGMP-dependent 3',5'-cyclic phosphodiesterase (O00408 whole entry, the tested form may be a part): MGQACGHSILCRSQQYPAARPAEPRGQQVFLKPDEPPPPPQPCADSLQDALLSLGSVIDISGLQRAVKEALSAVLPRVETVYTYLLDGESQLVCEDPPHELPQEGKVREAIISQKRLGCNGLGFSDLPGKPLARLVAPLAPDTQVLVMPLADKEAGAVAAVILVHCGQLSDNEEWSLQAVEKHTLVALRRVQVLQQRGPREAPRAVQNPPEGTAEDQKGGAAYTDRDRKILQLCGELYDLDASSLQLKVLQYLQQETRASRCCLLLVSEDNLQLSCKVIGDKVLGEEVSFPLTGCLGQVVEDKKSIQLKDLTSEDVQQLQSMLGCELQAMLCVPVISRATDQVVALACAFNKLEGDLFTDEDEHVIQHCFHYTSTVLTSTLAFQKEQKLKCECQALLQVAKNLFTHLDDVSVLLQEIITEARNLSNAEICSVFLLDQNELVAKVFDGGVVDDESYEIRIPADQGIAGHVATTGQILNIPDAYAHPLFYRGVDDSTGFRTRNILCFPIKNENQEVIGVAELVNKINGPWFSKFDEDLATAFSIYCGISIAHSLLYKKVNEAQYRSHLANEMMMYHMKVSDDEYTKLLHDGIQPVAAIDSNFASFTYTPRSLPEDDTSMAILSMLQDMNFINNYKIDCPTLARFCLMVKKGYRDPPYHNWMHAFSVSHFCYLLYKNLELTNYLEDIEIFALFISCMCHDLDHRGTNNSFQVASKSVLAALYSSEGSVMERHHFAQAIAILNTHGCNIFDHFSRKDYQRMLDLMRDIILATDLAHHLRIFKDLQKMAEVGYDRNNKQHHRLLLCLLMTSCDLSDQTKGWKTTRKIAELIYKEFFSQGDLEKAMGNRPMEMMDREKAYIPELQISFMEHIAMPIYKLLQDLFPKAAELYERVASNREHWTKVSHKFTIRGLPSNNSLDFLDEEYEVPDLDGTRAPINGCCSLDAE

SMILES: COc1cc(CCCO)cc(OC)c1O
IC50 [11]: > 20 µM

SMILES: COc1cc([C@H]2c3cc(O)c(OC)cc3C[C@@H](CO)[C@@H]2CO[C@@H]2OC[C@@H](O)[C@H](O)[C@H]2O)ccc1O
IC50 [11]: > 20 µM

SMILES: COc1cc([C@@H]2Oc3c(OC)cc(CCCO)cc3[C@H]2CO[C@@H]2OC[C@@H](O)[C@H](O)[C@H]2O)ccc1O
IC50 [11]: > 20 µM

SMILES: COc1cc([C@H]2Oc3c(OC)cc(CCCO)cc3[C@@H]2CO[C@@H]2OC[C@@H](O)[C@H](O)[C@H]2O)ccc1O
IC50 [11]: > 20 µM

SMILES: COc1cc([C@H]2c3c(cc(OC)c(O)c3OC)C[C@@H](CO)[C@@H]2CO[C@@H]2OC[C@@H](O)[C@H](O)[C@H]2O)cc(OC)c1O [LYONISIDE]
IC50 [11]: > 20 µM

Now from value to compound:

Ratio IC50 [1]: 20
IC50 [2]: 3.81 µM
Ratio IC50 [3]: 16
IC50 [4]: > 50 µM
Ratio IC50 [5]: > 204
IC50 [6]: > 20 µM
Ratio IC50 [7]: 11
Ratio IC50 [8]: > 82
IC50 [9]: 2.63 µM
IC50 [10]: 4.83 µM
IC50 [11]: 0.245 µM
SMILES: C=C1CC[C@]2(C(=O)O)CC[C@]3(C)C(=CC[C@@H]4[C@@]5(C)C[C@@H](O)[C@@H](OC(=O)/C=C/c6ccc(O)cc6)C(C)(C)[C@@H]5CC[C@]43C)[C@@H]2[C@H]1C

IC50 [11]: 0.542 µM
SMILES: C=C1CC[C@]2(C(=O)O)CC[C@]3(C)C(=CC[C@@H]4[C@@]5(C)C[C@@H](O)[C@@H](OC(=O)/C=C\c6ccc(O)cc6)C(C)(C)[C@@H]5CC[C@]43C)[C@@H]2[C@H]1C

IC50 [11]: > 20 µM
SMILES: C=C1CC[C@]2(C(=O)O)CC[C@]3(C)C(=CC[C@@H]4[C@@]5(C)C[C@@H](O)[C@@H](O)C(C)(C)[C@@H]5CC[C@]43C)[C@@H]2[C@H]1C

IC50 [11]: > 20 µM
SMILES: CC1=CC(=O)CC(C)(C)[C@]1(O)/C=C/[C@@H](C)O
